Results as given in patent US12507703B2, “Methods, devices and compositions for preserving human milk” (The Trustees of Princeton University, priority 2023, dated 2025).
Values joined by “and” are separate entries in the source; they are usually repeats but may differ in a detail not shown here. Identical values can stand only once. Where a SMILES comes first, the peptide text is derived from it.

What follows are compounds tested on lipase (assay: Lipase/lipolysis assay (EnzChek Lipase Substrate, quenched BODIPY-fatty acid conjugate) on stored human milk; note: test concentration or dose not given here).

Compared with `O=c1c(O[C@@H]2O[C@H](CO)[C@@H](O)[C@H](O)[C@H]2O[C@@H]2O[C@H](CO)[C@@H](O)[C@H](O)[C@H]2O)c(-c2ccc(O)cc2)oc2cc(O)cc(O)c12` [Kaempferol 3-O-sophoroside], `C/C=C/C=C/C=C\CC/C=C/C(=O)NCC(C)(C)O` [Hydroxy-α-sanshool] is higher in “Lipase (RFU)” value: 867.3846 RFU for the first, 984.0163 RFU for the second.

Going from `OC[C@H]1O[C@@H](OC[C@H]2O[C@@H](O)[C@H](O)[C@@H](O)[C@@H]2O)[C@H](O)[C@@H](O)[C@@H]1O` [β-Gentiobiose] to `C[C@@H]1CC[C@@]2(OC1)O[C@H]1C[C@H]3[C@@H]4CC[C@@H]5C[C@@H](O)CC[C@]5(C)[C@H]4CC[C@]3(C)[C@H]1[C@@H]2C` [Smilagenin], the “Lipase (RFU)” value falls from 997.1115 RFU to 790.1194 RFU.

First: CC(=O)CCC=C(C)C [Sulcatone]
Second: OC[C@H]1O[C@@H](Oc2cc3c(O)cc(O)cc3[o+]c2-c2cc(O)c(O)c(O)c2)[C@H](O)[C@@H](O)[C@@H]1O.[Cl-] [Delphinidin 3-glucoside (chloride)]
The “Lipase (RFU)” value of the first is higher: 1082.02 RFU for the first, 843.0852 RFU for the second.

Compared with Anacardic Acid, `COC(=O)[C@H](Cc1ccccc1)NC(=O)[C@H](CC(=O)O)NCCC(C)(C)C` [Neotame] is higher in “Lipase (RFU)” value: 908.2535 RFU for the first, 994.7737 RFU for the second.

Going from `COc1cc(O)c2c(=O)cc(-c3ccc(O)c(O)c3)oc2c1` [Hydroxygenkwanin] to `C=C(CC(=O)O)C(=O)O` [Itaconic Acid], the “Lipase (RFU)” value rises from 874.9866 RFU to 944.0433 RFU.

Compared with `O=C(O)CCCCC1CCSS1` (centres unmarked) [Lipoic acid], `C=CCc1ccc(O)c(-c2cc(CC=C)ccc2O)c1` [Magnolol] is lower in “Lipase (RFU)” value: 1146.052 RFU for the first, 941.9616 RFU for the second.

Compared with `CC(CCC1(O)OC2CC3C4CCC5CC(OC6OC(CO)C(O)C(O)C6OC6OC(CO)C(O)C(O)C6O)CCC5(C)C4CCC3(C)C2C1C)COC1OC(CO)C(O)C(O)C1O` (centres unmarked) [Officinalisinin I], `CC(C)=CCc1c(O)cc(O)c2c(=O)c(-c3ccc(O)cc3)coc12` [Lupiwighteone] is higher in “Lipase (RFU)” value: 937.9671 RFU for the first, 1206.447 RFU for the second.

First: OC[C@H]1O[C@@H](O[C@H]2[C@H](O)[C@@H](O)[C@@H](O)O[C@@H]2CO)[C@H](O)[C@@H](O)[C@H]1O [Lactose]
Second: C[C@H](N)C(=O)NCC(=O)O [(S)-2-(2-Aminopropanamido)acetic acid] (H-Ala-Gly-OH)
The “Lipase (RFU)” value of the first is lower: 912.5223 RFU for the first, 993.8076 RFU for the second.

Going from `c1cncc([C@@H]2CCCCN2)c1` (racemic) [(±) Anabasine] to `C[C@]12CCC(=O)C=C1CC[C@@H]1[C@@H]2C(=O)C[C@@]2(C)[C@H]1CC[C@]2(O)C(=O)CO` [Cortisone], the “Lipase (RFU)” value rises from 1022.058 RFU to 1233.864 RFU.

First: NCCOP(=O)(O)O [O-Phosphoryl-Ethanolamine]
Second: N[C@H](CCC(=O)O)C(=O)O [D-Glutamic Acid]
The “Lipase (RFU)” value of the first is higher: 1247.866 RFU for the first, 1176.72 RFU for the second.

Compared with `COc1cc(-c2oc3cc(O[C@@H]4O[C@H](CO)[C@@H](O)[C@H](O)[C@H]4O)cc(O)c3c(=O)c2O)ccc1O` [Brassicin], `NC(Cc1ccccc1O)C(=O)O` (racemic) [DL-O-Tyrosine] is lower in “Lipase (RFU)” value: 1089.017 RFU for the first, 919.2122 RFU for the second.

First: Nc1ncnc2c1ncn2[C@@H]1O[C@H](COP(=O)(O)O)[C@@H](O)[C@H]1O.O [Adenosine 5′-monophosphate monohydrate]
Second: COc1cc(O)c2c(c1)O[C@H](c1cc(O)cc(O)c1)CC2=O [Blumeatin]
The “Lipase (RFU)” value of the first is higher: 920.9967 RFU for the first, 847.8117 RFU for the second.

Going from `COc1nccc(N)n1` [Compound 2-O-Methylcytosine] to Isobergapten, the “Lipase (RFU)” value rises from 1109.623 RFU to 1247.074 RFU.

First: NC(=O)NCCC(=O)O [Ureidopropionic acid]
Second: CCCCCC/C=C/CCCCCCCCCC(=O)O [trans-Vaccenic acid]
The “Lipase (RFU)” value of the first is higher: 1035.138 RFU for the first, 932.0426 RFU for the second.

Going from `Oc1ccc2c(c1)OCO2` [Sesamol] to `O=C(O)C(O)COP(=O)(O)O` [D-3-Phospho-Glyceric Acid], the “Lipase (RFU)” value falls from 995.7089 RFU to 875.2279 RFU.

Compared with `C=C(CCC=C(C)C)[C@H]1CC[C@]2(C)[C@@H]1[C@H](O)C[C@@H]1[C@@]3(C)CC[C@H](O)C(C)(C)[C@@H]3[C@@H](O[C@@H]3O[C@H](CO)[C@@H](O)[C@H](O)[C@H]3O[C@@H]3O[C@@H](C)[C@H](O)[C@@H](O)[C@H]3O)C[C@]12C` [Ginsenoside Rg6], `CCOP(=O)(OCC)OCC` [Triethyl Phosphate] is higher in “Lipase (RFU)” value: 737.5989 RFU for the first, 963.8293 RFU for the second.

Compared with `CCC1CCC(=O)O1` (centres unmarked) [γ-Hexalactone], `CCCCCC1CCCC(=O)O1` (centres unmarked) [δ-Decalactone] is higher in “Lipase (RFU)” value: 1020.576 RFU for the first, 1070.795 RFU for the second.

Compared with `CC(C)CCC[C@@H](C)[C@H]1CC[C@H]2[C@@H]3CCC4=CC(=O)CC[C@]4(C)[C@H]3CC[C@]12C` [Cholestenone], D-(−)-Quinic acid is higher in “Lipase (RFU)” value: 787.5717 RFU for the first, 827.4863 RFU for the second.

Going from (−)-Epiafzelechin to `O=C1CCCCCCCCCCCCCCO1` [ω-Pentadecalactone], the “Lipase (RFU)” value rises from 915.141 RFU to 959.0542 RFU.

First: CC(C)=CCc1c2ccoc2c(O)c2oc(=O)ccc12 [Alloimperatorin]
Second: NC(CCCC(=O)O)C(=O)O (centres unmarked) [Aminoadipic acid]
The “Lipase (RFU)” value of the first is lower: 601.2746 RFU for the first, 1118.253 RFU for the second.

First: O=C(CO)[C@@H](O)[C@H](O)[C@@H](O)C(=O)O [5-Keto-D-Gluconic Acid]
Second: Nc1ccccc1C(=O)C[C@H](N)C(=O)O [L-Kynurenine]
The “Lipase (RFU)” value of the first is higher: 922.1469 RFU for the first, 761.0277 RFU for the second.

`O=C([O-])[C@H](O)[C@@H](O)[C@H](O)[C@H](O)CO.[K+]` [Potassium Gluconate] was tested, and the “Lipase (RFU)” value was 966.4096 RFU and 888.9701 RFU.
In the case of `CCCCC/C=C/C=C/C(=O)NCC(C)C` [Pellitorine], the “Lipase (RFU)” value is reported as 785.2318 RFU and 741.5651 RFU.
`N[C@@H](Cc1c[nH]c2ccccc12)C(=O)O` [L-Tryptophan] was tested, and the “Lipase (RFU)” value was 1074.461 RFU and 1239.076 RFU.
In the case of Rhamnose, the “Lipase (RFU)” value is reported as 816.2993 RFU and 1253.305 RFU.
With `CC(C)C12CCC(C)(CC1)O2` [1,4-Cineole] the “Lipase (RFU)” value was 770.6625 RFU and 1018.049 RFU.
`C[N+](C)(C)[O-]` [Trimethylamine N-oxide] was tested, and the “Lipase (RFU)” value was 948.4231 RFU and 1147.152 RFU.
`C/C=C/C=C/C(=O)[O-].[K+]` [Potassium sorbate] was tested, and the “Lipase (RFU)” value was 727.0693 RFU and 1055.671 RFU.
For `C[N+](C)(C)CC(O)CC(=O)[O-]` (racemic) [D,L-Carnitine], the “Lipase (RFU)” value was 1067.602 RFU and 1032.196 RFU.
In the case of `C=CCc1ccc(OC)cc1` [Estragole], the “Lipase (RFU)” value is reported as 655.6447 RFU and 832.8206 RFU.
`C=C1CC[C@H]2O[C@]2(C)CC[C@@H]2[C@@H]1CC2(C)C` [Caryophyllene oxide] was tested, and the “Lipase (RFU)” value was 891.7497 RFU and 923.1149 RFU.
In the case of `COC(=O)c1ccc(OC)cc1` [Methyl anisate], the “Lipase (RFU)” value is reported as 1101.708 RFU and 911.2014 RFU.
